Experimental data: US20260243940A1, “COMPOUND, POLYMERIZABLE COMPOSITION, CURED PRODUCT, OPTICAL FILM, POLARIZING PLATE, AND IMAGE DISPLAY DEVICE” (FUJIFILM Corporation, priority 2019, published 2026)

Assays:
[1] = Precipitation suppression (recrystallization temperature on cooling, hot stage under polarizing microscope); assay type: physicochemical; conditions: for Precipitation suppression: class by recrystallization temperature, heated to isotropic phase, then lowered at 5° C./min
Method: Two polarizers of an optical microscope (ECLIPSE E600 POL, manufactured by Nikon Corporation) were arranged so that they were orthogonal to each other, and a sample stand was set between the two polarizers.
Then, a small amount of each synthesized compound was placed on a slide glass, and the slide glass was set on a hot stage placed on a sample stand. While observing the state of the sample with a microscope, the temperature of the hot stage was raised at 5° C./min, and the type of liquid crystal phase and the temperature at which phase transition occurred were recorded from the state of the sample.
In addition, for the recrystallization temperature, the temperature was elevated up to an isotropic phase and then lowered at 5° C./min, and a temperature at which crystals were precipitated was recorded.
Based on the results of the recrystallization temperature measured by the above-mentioned method for evaluating the phase transition temperature, the evaluation was made according to the following standard. The results are shown in Table 3 below. • A: Lower than 50° C. • B: 50° C. or higher and 100° C. or lower • C: Higher than 100° C. and 150° C. or lower • D: Higher than 150° C. and 180° C. or lower

[2] = Solubility in cyclopentanone; assay type: physicochemical; conditions: for Solubility: heated and stirred at 50° C. for 1 minute, left at 20° C. for 10 minutes, concentration lowered from 40% in 5% steps
Method: Cyclopentanone was added to 25 mg of each synthesized compound so that the concentration of each compound was 40% by mass, and the mixture was heated and stirred at 50° C. for 1 minute.
Then, the mixture was left to stand at 20° C. for 10 minutes, and in a case where there is no undissolved residue or precipitation, it is determined that the mixture can be dissolved at 40% by mass.
In a case where there was an undissolved residue or precipitation, cyclopentanone was further added to the mixture to reduce the concentration by 5% by mass, an operation of heating and stirring at 50° C. for 1 minute and then leaving the mixture stand at 20° C. for 10 minutes was repeatedly performed until there was no undissolved residue or precipitation, thereby confirming the solubility.

| Structure (SMILES) | Precipitation suppression [1] | Solubility [2] [% by mass] | precipitation suppression (in words) ([1]; summary of Table 3) | solubility (in words) ([2]; summary of Table 3) |
| --- | --- | --- | --- | --- |
| C=CC(=O)OCCOC(=O)C1CCC(C2CCC(C(=O)Oc3ccc(OC(=O)C4CCC(C5CCC(C(=O)OCCOC(=O)C=C)CC5)CC4)c4c(OC(C)=O)cccc34)CC2)CC1 (centres unmarked) [Compound 1-13] | A (Lower than 50° C.) | 30 | – | – |
| C=CC(=O)OCCCCOC(=O)C1CCC(C2CCC(C(=O)Oc3cc(OCC)c(OC(=O)C4CCC(C5CCC(C(=O)OCCCCOC(=O)C=C)CC5)CC4)c4ccccc34)CC2)CC1 (centres unmarked) [Compound 1-4] | B (50 °C or higher and 100 °C or lower) | >40 | – | – |
| C=CC(=O)OCCCCOC(=O)C1CCC(C2CCC(C(=O)Oc3ccc(OC(=O)C4CCC(C5CCC(C(=O)OCCCCOC(=O)C=C)CC5)CC4)c4c(OC(C)=O)cccc34)CC2)CC1 (centres unmarked) [Compound 1-11] | A (Lower than 50° C.) | 35 | – | – |
| C=CC(=O)OCCCCOC(=O)C1CCC(C2CCC(C(=O)Oc3cc(C)c(OC(=O)C4CCC(C5CCC(C(=O)OCCCCOC(=O)C=C)CC5)CC4)c4ccccc34)CC2)CC1 (centres unmarked) [Compound 1-2] | C (Higher than 100 °C and 150 °C or lower) | 25 | – | – |
| C=CC(=O)OCCCCOC(=O)C1CCC(C2CCC(C(=O)Oc3ccc(OC(=O)C4CCC(C5CCC(C(=O)OCCCCOC(=O)C=C)CC5)CC4)c4c(C)cccc34)CC2)CC1 (centres unmarked) [Compound 1-7] | C (Higher than 100 °C and 150 °C or lower) | 25 | – | – |
| C=CC(=O)OCCCCOC(=O)C1CCC(C2CCC(C(=O)Oc3cc(OC)c(OC(=O)C4CCC(C5CCC(C(=O)OCCCCOC(=O)C=C)CC5)CC4)c4ccccc34)CC2)CC1 (centres unmarked) [Compound 1-3] | C (Higher than 100 °C and 150 °C or lower) | 20 | – | – |
| C=CC(=O)OCCCCOC(=O)C1CCC(C2CCC(C(=O)Oc3cc(C(=O)OC)c(OC(=O)C4CCC(C5CCC(C(=O)OCCCCOC(=O)C=C)CC5)CC4)c4ccccc34)CC2)CC1 (centres unmarked) [Compound 1-5] | B (50 °C or higher and 100 °C or lower) | >40 | – | – |
| C=CC(=O)OCCCCOC(=O)C1CCC(C2CCC(C(=O)Oc3ccc(OC(=O)C4CCC(C5CCC(C(=O)OCCCCOC(=O)C=C)CC5)CC4)c4cc(C)ccc34)CC2)CC1 (centres unmarked) [Compound 1-6] | C (Higher than 100 °C and 150 °C or lower) | 35 | – | – |
| C=CC(=O)OCCCCOC(=O)C1CCC(C2CCC(C(=O)Oc3ccc(OC(=O)C4CCC(C5CCC(C(=O)OCCCCOC(=O)C=C)CC5)CC4)c4c(OC(=O)CCl)cccc34)CC2)CC1 (centres unmarked) [Compound 2-4] | A (Lower than 50° C.) | 20 | – | – |
| C=CC(=O)OCCCCOC(=O)C1CCC(C2CCC(C(=O)Oc3ccc(OC(=O)C4CCC(C5CCC(C(=O)OCCCCOC(=O)C=C)CC5)CC4)c4c(OCC)ccc(OCC)c34)CC2)CC1 (centres unmarked) [Compound 1-16] | A (Lower than 50° C.) | >40 | – | – |
| C=CC(=O)OCCCCOc1ccc(C(=O)Oc2ccc(OC(=O)c3ccc(OC(=O)c4ccc(OC(=O)c5ccc(OCCCCOC(=O)C=C)cc5)cc4)c(C)c3)cc2)cc1 [compound 2, reference compound] | C (Higher than 100 °C and 150 °C or lower) | <5 | deteriorated | deteriorated |
| C=CC(=O)OCCCCOC(=O)C1CCC(C2CCC(C(=O)Oc3ccc(OC(=O)C4CCC(C5CCC(C(=O)OCCCCOC(=O)C=C)CC5)CC4)c4c(OC(C)=O)ccc(OC(C)=O)c34)CC2)CC1 (centres unmarked) [Compound 1-17] | C (Higher than 100 °C and 150 °C or lower) | 20 | – | – |
| C=CC(=O)OCCCCOc1ccc(C(=O)Oc2ccc(C(=O)Oc3ccc(OC(=O)c4ccc(OC(=O)c5ccc(OCCCCOC(=O)C=C)cc5)cc4)c4c(OC(C)=O)cccc34)cc2)cc1 [Compound 2-2] | C (Higher than 100 °C and 150 °C or lower) | 15 | – | – |
| C=C(C)C(=O)OCCCCOC(=O)C1CCC(C2CCC(C(=O)Oc3ccc(OC(=O)C4CCC(C5CCC(C(=O)OCCCCOC(=O)C(=C)C)CC5)CC4)c4c(OC(C)=O)cccc34)CC2)CC1 (centres unmarked) [Compound 1-12] | A (Lower than 50° C.) | 35 | – | – |
| C=CC(=O)OCCOCCOCCOC(=O)C1CCC(C2CCC(C(=O)Oc3ccc(OC(=O)C4CCC(C5CCC(C(=O)OCCOCCOCCOC(=O)C=C)CC5)CC4)c4c(OC(C)=O)cccc34)CC2)CC1 (centres unmarked) [Compound 1-15] | A (Lower than 50° C.) | >40 | – | – |
| C=CC(=O)OCCCCOC(=O)C1CCC(C2CCC(C(=O)Oc3ccc(OC(=O)C4CCC(C5CCC(C(=O)OCCCCOC(=O)C=C)CC5)CC4)c4c(OCCCC)cccc34)CC2)CC1 (centres unmarked) [Compound 1-9] | A (Lower than 50° C.) | 20 | – | – |
| C=CC(=O)OCCCCOC(=O)C1CCC(C2CCC(C(=O)Oc3ccc(OC(=O)C4CCC(C5CCC(C(=O)OCCCCOC(=O)C=C)CC5)CC4)c4c(OCC)cccc34)CC2)CC1 (centres unmarked) [Compound 1-8] | B (50 °C or higher and 100 °C or lower) | 20 | – | – |
| C=CC(=O)OCCCCOC(=O)C1CCC(C2CCC(C(=O)Oc3ccc(OC(=O)C4CCC(C5CCC(C(=O)OCCCCOC(=O)C=C)CC5)CC4)c4ccccc34)CC2)CC1 (centres unmarked) [Compound 1-1] | D (Higher than 150 °C and 180 °C or lower) | 20 | – | – |
| C=CC(=O)OCCCCOC(=O)C1CCC(C2CCC(C(=O)Oc3ccc(OC(=O)C4CCC(C5CCC(C(=O)OCCCCOC(=O)C=C)CC5)CC4)c4c(OCCCCCCCC)cccc34)CC2)CC1 (centres unmarked) [Compound 1-10] | B (50 °C or higher and 100 °C or lower) | 30 | – | – |
| C=CC(=O)OCCCCOC(=O)C1CCC(OC(=O)C2CCC(C(=O)Oc3ccc(OC(=O)C4CCC(C(=O)OC5CCC(C(=O)OCCCCOC(=O)C=C)CC5)CC4)c4ccccc34)CC2)CC1 (centres unmarked) [Compound 2-1] | C (Higher than 100 °C and 150 °C or lower) | 10 | – | – |
| C=CC(=O)OCCCCOC(=O)C1CCC(C2CCC(C(=O)Oc3ccc(OC(=O)C4CCC(C5CCC(C(=O)OCCCCOC(=O)C=C)CC5)CC4)c4c(OS(C)(=O)=O)cccc34)CC2)CC1 (centres unmarked) [Compound 2-3] | A (Lower than 50° C.) | 25 | – | – |
